Measurements published in patent publication US11085056B2, “Transfection complexes and methods of using the same” (MOLECULAR TRANSFER, INC., priority 2015, dated 2021).

Experiments:
NL-1 iPS Cells = experiment: Transfection of NL-1 iPS cells with DOTMA/DOPE/peptide and eGFP plasmid, fluorescent plate reader; type: cell-based; details: DOTMA/DOPE 1:1 plus peptide with RRRRRRRRRRRR (SEQ ID NO: 109) at n terminus; EF1Alpha eGFP plasmid; 42 hours
some examined cell types = experiment: Transfection expression and % cells transfected over the no peptide control; type: cell-based; details: on some examined cell types
Procedure, shortened: (§1)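 Cells at 60-70% confluence got DOTMA/DOPE (1:1) mixed with peptides bearing an N-terminal R12 DNA-binding tag, complexed 10 min with EF1α-eGFP plasmid (5 μg/mL in OptiMEM); 0.01 or 0.02 mL complex per well. After 42 h at 37 °C, GFP read by fluorescence plate reader and % transfected cells by microscopy, relative to lipid without peptide.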

HeLa Cells [1] = experiment: Transfection of HeLa cells with DOTMA/SEQ ID NO: 72/peptide compared with Lipofectamine 2000; type: cell-based; details: fusogenic peptide 0.1 mg/mL
Procedure, shortened: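 HeLa cells at 60–70% confluence received 0.01 mL of complexes of EF1Alpha eGFP plasmid (5 μg/mL in OptiMEM) with DOTMA/DOPE (1:1) plus R12-linked peptide, with fusogenic peptide at 0.1 mg/mL final. GFP read by fluorescence plate reader and microscopy (% cells transfected) after 42 h at 37 °C.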

C2C12 Cells = experiment: Transfection of C2C12 cells with DOTMA/DOPE/peptide and eGFP plasmid, fluorescent plate reader; type: cell-based, mouse; details: DOTMA/DOPE 1:1 plus peptide with RRRRRRRRRRRR (SEQ ID NO: 109) at n terminus; EF1Alpha eGFP plasmid; 0.02 mL complex; 42 hours
Procedure, shortened: as §1

HeLa Cells [2] = experiment: Transfection of HeLa cells with DOTMA/DOPE/peptide and eGFP plasmid, fluorescent plate reader; type: cell-based; details: DOTMA/DOPE 1:1 plus peptide with RRRRRRRRRRRR (SEQ ID NO: 109) at n terminus; EF1Alpha eGFP plasmid; 0.01 mL complex; 42 hours
Procedure, shortened: as §1

Jurkat Cells = experiment: Transfection of Jurkat cells with DOTMA/DOPE/peptide and eGFP plasmid, fluorescent plate reader; type: cell-based; details: DOTMA/DOPE 1:1 plus peptide with RRRRRRRRRRRR (SEQ ID NO: 109) at n terminus; EF1Alpha eGFP plasmid; 0.02 mL complex; 42 hours
Procedure, shortened: as §1

HuVec Cells = experiment: Transfection of HuVec cells with DOTMA/DOPE/peptide and eGFP plasmid, fluorescent plate reader; type: cell-based; details: DOTMA/DOPE 1:1 plus peptide with RRRRRRRRRRRR (SEQ ID NO: 109) at n terminus; EF1Alpha eGFP plasmid; 0.01 mL complex; 42 hours
Procedure, shortened: as §1

Human Fibroblast Cells = experiment: Transfection of human fibroblast cells with DOTMA/DOPE/peptide and eGFP plasmid, fluorescent plate reader; type: cell-based; details: DOTMA/DOPE 1:1 plus peptide with RRRRRRRRRRRR (SEQ ID NO: 109) at n terminus; EF1Alpha eGFP plasmid; 0.01 mL complex; 42 hours
Procedure, shortened: as §1

[3] = 0.1 μL of DOTMA/SEQ ID NO: 72/Peptide in well of a 96 well plate
[4] = 0.2 μL of DOTMA/SEQ ID NO: 72/Peptide in well of a 96 well plate
[5] = 0.3 μL of DOTMA/SEQ ID NO: 72/Peptide in well of a 96 well plate
[6] = 0.4 μL of DOTMA/SEQ ID NO: 72/Peptide in well of a 96 well plate

Substance	RF (Relative Fluorescence) of Transfection of NL-1 iPS Cells (NL-1 iPS Cells)	transfection expression and the % cells transfected over the no peptide control (some examined cell types)	RF (Relative Fluorescence), DOTMA/SEQ ID NO: 72/Peptide, HeLa Cells (HeLa Cells [1]; [3])	RF (Relative Fluorescence), DOTMA/SEQ ID NO: 72/Peptide, HeLa Cells (HeLa Cells [1]; [4])	RF (Relative Fluorescence), DOTMA/SEQ ID NO: 72/Peptide, HeLa Cells (HeLa Cells [1]; [5])	RF (Relative Fluorescence), DOTMA/SEQ ID NO: 72/Peptide, HeLa Cells (HeLa Cells [1]; [6])	RF (Relative Fluorescence) of Transfection of C2C12 Cells (C2C12 Cells)	RF (Relative Fluorescence) of Transfection of HeLa Cells (HeLa Cells [2])	RF (Relative Fluorescence) of Transfection of Jurkat Cells (Jurkat Cells)	RF (Relative Fluorescence) of Transfection of HuVec Cells (HuVec Cells)	RF (Relative Fluorescence) of Transfection of Human Fibroblast Cells (Human Fibroblast Cells)
328 (NWRHISYITRFG; Peptidic transfection agent) [compound 328]	8611	increased	11037	12229	10801	10951	5507	32528	4770	3614	5641
454 (TGLSCLQRFTTM; Peptidic transfection agent) [compound 454]	18100	increased	34033	37099	27412	16023	9280	34550	8224	13336	7568
336 (GEFYFDLRLKGDK; Peptidic transfection agent) [compound 336]	14875	increased	14442	16702	13434	11334	9647	25262	4813	5366	10449
358 (GHRGPTGRPGKRGKQGQKGDS; Peptidic transfection agent) [compound 358]	21956	increased	12331	12683	13686	11097	2271	15132	18820	25398	5665
344 (KGHRGF; Peptidic transfection agent) [compound 344]	10895	increased	13315	16387	12564	12511	1678	14415	10160	11867	12704
268 (GGFLKYTVSYDI; Peptidic transfection agent) [compound 268]	15697	increased	10162	9934	10792	9519	2568	25885	3236	5403	4568
